The species entered for test [1] is Homo sapiens. The experiment in a line: Selectivity for humanized cathepsin K over human cathepsin L.
For test [2], the species on record is Homo sapiens. The experiment in a line: Selectivity for humanized cathepsin K over human cathepsin S.

SMILES strings stand for the structures.

The results in this text go back to ChEMBL document CHEMBL1140019, “Primary amides as selective inhibitors of cathepsin K” (Bioorg Med Chem Lett, 2007).

In the case of `CC(C)C[C@H](N[C@@H](c1ccc(-c2ccc(S(C)(=O)=O)cc2)cc1)C(F)(F)F)C(=O)N[C@@H](Cc1ccccc1)C(N)=O`, the Ratio IC50 in the test listed under Homo sapiens [1] is 1700.
With `CSCC[C@H](NC(=O)[C@H](CC(C)C)N[C@@H](c1ccc(-c2ccc(S(C)(=O)=O)cc2)cc1)C(F)(F)F)C(N)=O`, the Ratio IC50 in the test filed under Homo sapiens [1] worked out at 4300.
As for `CC(C)C[C@H](N[C@@H](c1ccc(-c2ccc(S(C)(=O)=O)cc2)cc1)C(F)(F)F)C(=O)NCC(N)=O`, the Ratio IC50 in the test listed under Homo sapiens [2] is 170.
